Here are results for two molecules from patent publication US11058691B2, “Nitric oxide releasing prostaglandin derivatives for treating normal tension glaucoma” (BAUSCH & LOMB INCORPORATED, priority 2016, dated 2021).

Assay [1] is described as follows: Post hoc analysis of two Phase 3 clinical studies: IOP lowering in fellow eyes with baseline IOP ≤21 mm Hg. To be noted: for IOP lowering: fellow eyes with normal IOP at baseline (≤21 mm Hg mean diurnal). Type of assay: in vivo, human. The text has this: The findings reported below derive from a post hoc analysis of the results of two multicenter, double-masked, parallel-group Phase 3 clinical studies that evaluated the intraocular pressure (IOP) lowering effect of a 0.024% solution of Compound (1) dissolved in vehicle in subjects with open-angle glaucoma or ocular hypertension.
Subjects≥18 years instilled one drop of a 0.024% solution of Compound (1) once daily in the evening and vehicle in the morning or timolol maleate 0.5% twice daily for 3 months (active controlled efficacy phase). Thereafter all subjects instilled Compound (1) for a further 9 months in the first study or 3 months in the second study (open-label safety extension phase).
Intraocular pressure (IOP) was measured at 8 AM, 12 PM, and 4 PM at all visits including baseline, week 2, week 6, month 3, month 6 (both studies) and months 9 and 12 (first study only).
Non-study (i.e. fellow) eyes with normal IOP at baseline treated with Compound (1) 0.024% once a day in the evening (n=50; treatment for up to 12 months) or with timolol maleate 0.5% twice a day (n=17; treatment for 3 months) were identified, and IOP outcomes were summarized using descriptive statistics and two-sided, 95% confidence intervals (CI) for the means.
Normal IOP was defined as ≤21 mm Hg (mean diurnal; average of 8 AM, 12 PM and 4 PM measurements) in the primarily Caucasian population.

A short description of assay [2]: Post hoc analysis of a single-arm open-label Phase 3 clinical study in Japanese subjects: IOP lowering in eyes with baseline IOP ≤19 mm Hg. Type of assay: in vivo, human. To be noted: Japanese population, baseline IOP ≤19 mm Hg (10 AM); 0.024% solution once daily in the evening; over the 12 months study period. The text has this: The findings reported below derive from a post hoc analysis of the results of a single-arm, multicenter, open-label Phase 3 clinical study that evaluated the IOP lowering effect of a 0.024% solution of Compound (1) dissolved in vehicle in Japanese subjects with open-angle glaucoma (including normal-tension glaucoma, pigmentary glaucoma, or pseudoexfoliative glaucoma) or ocular hypertension.
Subjects≥20 years instilled one drop of a 0.024% solution of Compound (1) once daily in the evening for 12 months. Intraocular pressure was measured at 10 AM at baseline, and every 4 weeks thereafter for a total of 13 visits. Study and non-study (i.e. fellow) eyes with normal IOP at baseline treated with Compound (1) 0.024% once a day in the evening (n=66 and n=79 for treated study and treated fellow eyes respectively) were identified, and IOP outcomes were summarized using descriptive statistics and two-sided, 95% confidence intervals (CI) for the means.
Normal IOP was defined as ≤19 mm Hg (mean IOP measured at 10 AM) in the Japanese population, since Asian populations typically have lower IOP than non-Asian populations.

Where [3] appears, read: 3 month efficacy phase, Compound (1) 0.024% once daily in the evening, timolol maleate 0.5% twice daily.

Entries after “also recorded” stand apart in the source; their conditions may differ. Structures can show the parent of a compound that is named as a salt.

Consider `O=C(CCC/C=C\C[C@@H]1[C@@H](CC[C@@H](O)CCc2ccccc2)[C@H](O)C[C@@H]1O)OCCCCO[N+](=O)[O-]` (relative stereo) [Compound (1), [1R-[1α(Z), 2α(R*), 3α, 5α]]-7-[3,5-dihydroxy-2-(3-hydroxy-5-phenylpentyl)cyclopentyl]-5-heptenoic acid 4-(nitrooxy)butyl ester], for which the “IOP lowering effectiveness (in words)” value in assay [1] (eyes with IOP in the normal range (baseline ≤21 mm Hg), 0.024% QD in the evening) is listed as “appears to be more effective than timolol maleate; also recorded: effective for IOP lowering in eyes with IOP in the normal range”. Moreover, the IOP lowering in assay [1] (0.024% solution once daily in the evening, over the 12 months study period) is on record as 4.2-4.9 mm Hg. The IOP lowering in assay [1] (setting [3]) is 4.6-4.9 mm Hg. In assay [2], the “IOP lowering in the study eye” value is 3.4-4.2 mm Hg and the “IOP lowering in the treated fellow eye” value is 3.2-3.9 mm Hg.

Take `CC(C)(C)NC[C@H](O)COc1nsnc1N1CCOCC1` [timolol maleate, reference compound]: the IOP lowering in assay [1] (setting [3]) is 3.6-4.5 mm Hg.
